Assay results from ChEMBL document CHEMBL3044612, “Design, synthesis and biological evaluation of some novel 3-cinnamoyl-4-hydroxy-2H-chromen-2-ones as antimalarial agents” (Med Chem Res, 2012).
Converted amounts (≈) assume the structure as drawn.

What was measured:
[1] = Selectivity index, ratio of IC50 for human K562 cells to IC50 for chloroquine-resistant Plasmodium falciparum W2; assay type: toxicity, cell-based; conditions: read-out: Ratio IC50
Plasmodium falciparum [2] = assay: Antimalarial activity against chloroquine-resistant Plasmodium falciparum W2 by in vitro cell culture method; assay type: functional, organism-based
Plasmodium falciparum [3] = assay: Antimalarial activity against chloroquine-sensitive Plasmodium falciparum 3D7 by in vitro cell culture method; assay type: functional, organism-based
K562 = assay: Cytotoxicity against Homo sapiens (human) K562 cells by Sulphorhodamine B assay; assay type: cell-based
[4] = Selectivity index, ratio of IC50 for human K562 cells to IC50 for chloroquine-sensitive Plasmodium falciparum 3D7; assay type: toxicity, cell-based; conditions: read-out: Ratio IC50
[5] = Selectivity index, ratio of IC50 for human K562 cells to IC80 for chloroquine-sensitive Plasmodium falciparum 3D7; assay type: toxicity, cell-based; conditions: read-out: Selectivity Index
Plasmodium falciparum [6] = assay: Antimalarial activity against Plasmodium falciparum by [3H]-hypoxanthine incorporation assay; assay type: functional, organism-based

CN(C)c1ccc(/C=C/C(=O)c2c(O)c3ccccc3oc2=O)cc1 showed a selectivity ratio [1] of 2.29, an IC50 (Plasmodium falciparum [2]) of 68.2 µg/mL (≈ 203 µM) and an IC50 (Plasmodium falciparum [3]) of 17.2 µg/mL (≈ 51.3 µM). It also gave an IC80 (Plasmodium falciparum [3]) of 22.1 µg/mL (≈ 65.9 µM), an IC50 (K562) of 156 µg/mL (≈ 467 µM) and a selectivity ratio [4] of 9.1. It also gave a selectivity ratio [5] of 7.08.
In the case of O=C(/C=C/c1ccco1)c1c(O)c2ccccc2oc1=O, the IC50 (Plasmodium falciparum [3]) is reported as greater than 50 µg/mL.
O=C(/C=C/c1cccc([N+](=O)[O-])c1)c1c(O)c2ccccc2oc1=O gave a selectivity ratio [1] of 2.8, an IC50 (Plasmodium falciparum [2]) of 54.1 µg/mL (≈ 160 µM) and an IC50 (Plasmodium falciparum [3]) of 15.6 µg/mL (≈ 46.3 µM). For the same compound, the IC80 (Plasmodium falciparum [3]) was 25.2 µg/mL (≈ 74.7 µM), the IC50 (K562) was 152 µg/mL (≈ 450 µM) and the selectivity ratio [4] was 9.72. The selectivity ratio [5] was 6.02.
Work on O=C(/C=C/c1ccccc1)c1c(O)c2ccccc2oc1=O yielded a selectivity ratio [1] of 9.02, an IC50 (Plasmodium falciparum [2]) of 11 µg/mL (≈ 37.6 µM) and an IC50 (Plasmodium falciparum [3]) of 22.1 µg/mL (≈ 75.6 µM). For the same compound, the IC80 (Plasmodium falciparum [3]) was 56.3 µg/mL (≈ 193 µM), the IC50 (K562) was 99.2 µg/mL (≈ 339 µM) and the selectivity ratio [4] was 4.49. For the same compound, the selectivity ratio [5] was 1.76.
In the case of O=C(/C=C/c1cccc(Cl)c1)c1c(O)c2ccccc2oc1=O, the IC50 (Plasmodium falciparum [2]) is reported as 6.2 µg/mL (≈ 19 µM), the IC50 (Plasmodium falciparum [3]) is reported as 4.2 µg/mL (≈ 12.9 µM) and the IC80 (Plasmodium falciparum [3]) is reported as 9 µg/mL (≈ 27.5 µM).
Compound O=c1ccc2ccc(O)c(O)c2o1 [DAPHNETIN] has an IC50 (Plasmodium falciparum [6]) of 25 µM.
In the case of O=C(/C=C/c1ccc([N+](=O)[O-])cc1)c1c(O)c2ccccc2oc1=O, the selectivity ratio [1] is reported as 38.5, the IC50 (Plasmodium falciparum [2]) is reported as 4 µg/mL (≈ 11.9 µM) and the IC50 (Plasmodium falciparum [3]) is reported as 3.1 µg/mL (≈ 9.19 µM). For the same compound, the IC80 (Plasmodium falciparum [3]) was 7 µg/mL (≈ 20.8 µM), the IC50 (K562) was 154 µg/mL (≈ 457 µM) and the selectivity ratio [4] was 49.7. It also gave a selectivity ratio [5] of 22.
Compound O=C(/C=C/c1ccc(Cl)cc1)c1c(O)c2ccccc2oc1=O has a selectivity ratio [1] of 4.94, an IC50 (Plasmodium falciparum [2]) of 6.5 µg/mL (≈ 19.9 µM) and an IC50 (Plasmodium falciparum [3]) of 5.1 µg/mL (≈ 15.6 µM). The IC80 (Plasmodium falciparum [3]) was 14.2 µg/mL (≈ 43.5 µM), the IC50 (K562) was 32.1 µg/mL (≈ 98.2 µM) and the selectivity ratio [4] was 6.29. The selectivity ratio [5] was 2.26.
For COc1cc(/C=C/C(=O)c2c(O)c3ccccc3oc2=O)cc(OC)c1OC, the IC50 (Plasmodium falciparum [3]) was greater than 50 µg/mL and the IC50 (K562) was 103 µg/mL (≈ 270 µM).
O=C(/C=C/c1ccccc1Cl)c1c(O)c2ccccc2oc1=O showed an IC50 (Plasmodium falciparum [3]) greater than 50 µg/mL and an IC50 (K562) of 124 µg/mL (≈ 378 µM).
With COc1cc(/C=C/C(=O)c2c(O)c3ccccc3oc2=O)ccc1O the IC50 (Plasmodium falciparum [2]) was 61.3 µg/mL (≈ 181 µM), the IC50 (Plasmodium falciparum [3]) was 11.2 µg/mL (≈ 33.1 µM) and the IC80 (Plasmodium falciparum [3]) was 27.2 µg/mL (≈ 80.4 µM).
O=C(/C=C/c1ccc(Cl)cc1Cl)c1c(O)c2ccccc2oc1=O gave an IC50 (Plasmodium falciparum [3]) greater than 50 µg/mL and an IC50 (K562) of 149 µg/mL (≈ 413 µM).
CCN(CC)CCCC(C)Nc1ccnc2cc(Cl)ccc12 (stereo unspecified) [CHLOROQUINE] showed an IC80 (Plasmodium falciparum [3]) of 0.0401 µg/mL (≈ 0.125 µM) and an IC50 (K562) of 43.8 µg/mL (≈ 137 µM).
COc1ccc(/C=C/C(=O)c2c(O)c3ccccc3oc2=O)c(OC)c1OC showed a selectivity ratio [1] of 0.83, an IC50 (Plasmodium falciparum [2]) of 56.1 µg/mL (≈ 147 µM) and an IC50 (Plasmodium falciparum [3]) of 8.5 µg/mL (≈ 22.2 µM). The IC80 (Plasmodium falciparum [3]) was 20.3 µg/mL (≈ 53.1 µM), the IC50 (K562) was 46.6 µg/mL (≈ 122 µM) and the selectivity ratio [4] was 5.48. For the same compound, the selectivity ratio [5] was 2.3.
For Cc1ccc(/C=C/C(=O)c2c(O)c3ccccc3oc2=O)cc1, the IC50 (Plasmodium falciparum [2]) was 5.1 µg/mL (≈ 16.6 µM), the IC50 (Plasmodium falciparum [3]) was 6.1 µg/mL (≈ 19.9 µM) and the IC80 (Plasmodium falciparum [3]) was 15 µg/mL (≈ 49 µM).
With COc1ccc(/C=C/C(=O)c2c(O)c3ccccc3oc2=O)cc1OC the selectivity ratio [1] was 3.25, the IC50 (Plasmodium falciparum [2]) was 22 µg/mL (≈ 62.4 µM) and the IC50 (Plasmodium falciparum [3]) was 6.2 µg/mL (≈ 17.6 µM). It also gave an IC80 (Plasmodium falciparum [3]) of 15.1 µg/mL (≈ 42.9 µM), an IC50 (K562) of 71.4 µg/mL (≈ 203 µM) and a selectivity ratio [4] of 11.5. The selectivity ratio [5] was 4.73.
COc1ccc(/C=C/C(=O)c2c(O)c3ccccc3oc2=O)cc1 showed an IC50 (Plasmodium falciparum [2]) of 35.8 µg/mL (≈ 111 µM), an IC50 (Plasmodium falciparum [3]) of 7.2 µg/mL (≈ 22.3 µM) and an IC80 (Plasmodium falciparum [3]) of 6.2 µg/mL (≈ 19.2 µM).
